The values below come from PubChem BioAssay (NCI).

Each structure is given as a SMILES string. Where “and” joins values, the source holds several entries; their conditions need not be identical. Equal values may be shown once.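 48-hour exposure; five concentrations; linearly interpolated endpoints. The concentration for 50% growth inhibition is given as GI50. TGI marks complete inhibition of growth.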 Some results are limits rather than exact numbers.

For this experiment, the system named is MDA-MB-468 breast. Briefly: NCI tumour cell line growth inhibition, 48 h.
With `Cc1c(Cl)cccc1NC(=O)CC1Sc2ccccc2NC1=O` (centres undefined), the GI50 is 12.8 µM and the TGI worked out at 37.4 µM.

Consider `COc1ccc(-c2nc(-c3nc4ccc(F)cc4[nH]3)cc3c2[nH]c2ccccc23)cc1`, for which the GI50 was 2.08 µM and the TGI is over 100 µM.

Consider `COC[C@H]1C(=O)NCC(=O)N2NCCC[C@H]2C(=O)N(O)[C@H](C)C(=O)O[C@@H](C(C)C)[C@H](NC(=O)[C@](C)(O)[C@]2(O)CC[C@@H](CC(C)C)[C@H](C)O2)C(=O)N2NCCC[C@@H]2C(=O)N1O`, for which the GI50 was 0.014 µM and the TGI is 0.0311 µM.

Take `O=C(c1ccccc1)c1ccc(-c2ccc(O)cc2)cc1`: the GI50 is 1.94 µM and the TGI came to 8.86 µM.

With `CCOc1ccc(NC(=O)Nc2cc(C(C)C)ccc2C)cc1`, the GI50 is 5.67 µM and the TGI was 51.8 µM.

As for `COC1=CC(c2ccc[nH]2)=N/C1=C\c1[nH]c(C)c(C(=O)CCC(=O)Oc2ccc3c(c2)CCC2C3CC[C@]3(C)C(=O)CC[C@@H]23)c1C` (some centres undefined), the GI50 is 16.9 µM and the TGI is over 100 µM.

Take `COc1ccc2c(c1)O/C(=C\c1cccc(OCC(=O)Nc3nc4ccccc4s3)c1)C2=O`: the GI50 is 6.04 µM and the TGI is over 100 µM.

As for `CCCC[C@@H]1NC(=O)[C@H](CCCCN)NC(=O)[C@H](CCCNC(=N)N)NC(=O)[C@H](CC(C)C)NC(=O)[C@@H](NC(=O)[C@H](Cc2cccc(Cl)c2)NC(=O)[C@@H]2CCCN2C(=O)[C@@H](NC(C)=O)C(C)C)CCSSC[C@@H](C(=O)N[C@@H](CCCCN)C(=O)N2CCC[C@H]2C(=O)N2CCC[C@H]2C(=O)N[C@@H](CCC(=O)O)C(N)=O)NC(=O)[C@H](Cc2ccccc2)NC(=O)[C@H](CO)NC(=O)[C@H](C)NC(=O)[C@@H]2CCCN2C1=O`, the GI50 is over 50 µM and the TGI was over 50 µM.

`Cc1cc(N(CCCl)CCCl)ccc1C=Nc1cccnc1`: the GI50 is 0.0712 µM and the TGI came out at 0.521 µM.

For the compound `Cc1ccc(S(=O)(=O)N(C)C)cc1[N+](=O)[O-]`, the GI50 is over 100 µM and the TGI is over 100 µM.

As for `O=S(=O)(Nc1ccc(-c2nc(-c3cccc(OCCN4CCOCC4)c3)c(-c3ccnc(Br)c3)[nH]2)cc1)c1ccccc1`, the GI50 is 1.85 µM and the TGI is 5.24 µM.

Take `COc1ccc(-c2cc3c4c(nc5ccccc5c4c2)CC(c2cc(OC)c(OC)c(OC)c2)O3)cc1` (centres undefined): the GI50 is 2.63 µM and the TGI is 10.5 µM.

With `Brc1c[n+](Cc2ccc3ccccc3c2)cn1Cc1ccc2ccccc2c1`, the GI50 is 0.624 µM and the TGI was found to be 2.57 µM.

With `c1ccc2c(c1)O[As](O[As]1Oc3ccccc3O1)O2`, the GI50 was 1.25 µM and the TGI was determined as 4.04 µM.

For the compound `COc1ccc2c(c1)Oc1nc(N)c(C#N)c(N)c1C2Sc1ccc(SC)cc1` (centres undefined), the GI50 was 1.75 µM and the TGI was found to be 3.59 µM.

On to `COc1ccc(/C=C2/CN(C(=O)c3ccccc3F)C/C(=C\c3ccc(OC)cc3)C2=O)cc1`, for which the GI50 is 1.91 µM and the TGI turned out to be 4.49 µM.

For `O=C1C(=O)c2ccc(Br)cc2-c2cc(Br)ccc21`, the GI50 is 0.604 µM and the TGI is 1.43 µM.

Regarding `Cc1ccc(NS(=O)(=O)c2ccc(-c3cnc(C4CC4)o3)cc2)cc1`, the GI50 was 1.17 µM and the TGI amounted to 5.83 µM.

On to `ClCCN(CCCl)Cc1ccc(Nc2ccnc3cc(Cl)ccc23)cc1`, for which the GI50 is 0.702 µM and the TGI was 2.99 µM.

Consider `COc1cc(-c2c3c(cn2S(=O)(=O)c2ccccc2)-c2nc(N)sc2CC3)cc(OC)c1OC`, for which the GI50 was 0.426 µM and the TGI is 22.2 µM.

Take `OCCN1CCN(CCCN2c3ccccc3Sc3ccc(C(F)(F)F)cc32)CC1`: the GI50 was 0.827 µM and 3.63 µM and 2.63 µM; the TGI was 2.08 µM and 15.4 µM and 11.3 µM.

In the case of `COc1cc(O)c2c(c1)[C@H]1O[C@@H]1C[C@H](O)[C@H](O)C(=O)/C=C\C[C@H](C)OC2=O`, the GI50 is 1.1 µM and the TGI turned out to be 5.64 µM.

`O=C1Nc2ccc(Cl)cc2/C1=C\c1c(-c2ccc(F)cc2)nc2ccccn12`: the GI50 is 2.08 µM and the TGI came to 6.19 µM.

Turning to `CCCOC(=O)N[C@H]1CCc2c(Br)c(OC)c(OC)c(OC)c2-c2ccc(SC)c(=O)cc21`, the GI50 was under 0.01 µM and the TGI worked out at 18.1 µM.

For `C[C@@H]1O[C@@H](O[C@H]2C[C@@H](O)[C@]3(CO)C4C(CC[C@]3(O)C2)[C@@]2(O)CC[C@H](C3=CC(=O)OC3)[C@@]2(C)C[C@H]4O)[C@H](O)[C@H](O)[C@H]1O` (some centres undefined), the GI50 is 0.0841 µM and the TGI was determined as 0.187 µM.

On to `Cn1ncc2cc(-c3cnc(N)c(Cl)c3N3CCC4(CCNC4=O)CC3)ccc21`, for which the GI50 was 16.4 µM and the TGI was 63.1 µM.

On to `O=C(NCc1cn(Cc2cccc(Oc3ccccc3)c2)nn1)c1cccnc1Nc1ccccc1`, for which the GI50 is 2.88 µM and the TGI worked out at 57.4 µM.

Turning to `CN(C(=O)c1ccc(F)cc1C(F)(F)F)C1CCN(c2nnc(-c3ccnn3C)c3ccccc23)CC1`, the GI50 is 7.1 µM and the TGI is 61.4 µM.

In the case of `Cn1ncc2c(Nc3ccc(Br)cc3)nc(Nc3ccc(Br)cc3)nc21`, the GI50 is 2.11 µM and the TGI turned out to be 7.78 µM.

As to `Cc1nc2sc(C(=O)Nc3cccc4ccccc34)c(N)c2cc1C(C)O` (centres undefined), the GI50 was 0.126 µM and the TGI turned out to be 0.416 µM.

For the compound `COCCNCC(O)Cn1c2ccc(Cl)cc2c2cc(Cl)ccc21` (centres undefined), the GI50 was 1.78 µM and the TGI was 3.85 µM.

Take `CCOC(=O)C1(Cc2ccc(C)cc2)Cc2ccc(C)cc2C1=O` (centres undefined): the GI50 was 10.4 µM and the TGI was 37.4 µM.

`CCC(=O)Sc1ccccc1C(=O)Nc1ccc(Cl)cc1`: the GI50 is 9.97 µM and the TGI is over 100 µM.

As for `C=C1C(=O)O[C@H]2[C@H]1CC/C(COC(=O)OCCCCCOC(=O)OC/C1=C/CC[C@@]3(C)O[C@H]3[C@H]3OC(=O)C(=C)[C@@H]3CC1)=C\CC[C@@]1(C)O[C@@H]21`, the GI50 is 0.186 µM and the TGI amounted to 0.458 µM.

On to `CS(=O)(=O)c1nccc(-c2c(-c3cccc(OCc4ccc(F)cc4)c3)nc3sccn23)n1`, for which the GI50 was 1.99 µM and the TGI amounted to 3.98 µM.

With `FC(F)(F)c1cc(Nc2ccc3c(OCCCN4CCOCC4)cccc3n2)ccc1Cl`, the GI50 was 2.17 µM and the TGI came to 5.92 µM.

`COc1ccc(OC)c(/C=C/[N+](=O)[O-])c1`: the GI50 was 1.22 µM and the TGI was determined as 2.68 µM.

Turning to `O=C(CC12CC3CC(CC(C3)C1)C2)NCCOCCOCCNC(=O)c1cc2c(o1)C(=O)c1ccccc1C2=O`, the GI50 was 1.21 µM and the TGI worked out at 3.3 µM.

Regarding `O=C1Nc2ccc(F)c3c(OCCO)cc(-c4ccc[nH]4)c1c23`, the GI50 is 0.528 µM and the TGI was 1.83 µM.

With `COc1cnc2c(c1)C(=O)c1c-2n(CCCn2ccnc2)c(=O)c2cc(OC)c(OC)cc12`, the GI50 is 0.0511 µM and the TGI came to 0.358 µM.

With `CO/N=C(\c1ccccc1)c1cnn(-c2ccccc2)c1N`, the GI50 was over 25 µM and the TGI was over 25 µM.

As for `O=C1C=C(SCCO)C(=O)c2ccccc21`, the GI50 was 1.51 µM and the TGI was 3.46 µM.

Consider `OCC1SC(n2cnc3cncnc32)C(O)C1O` (centres undefined), for which the GI50 is over 100 µM and the TGI is over 100 µM.

`Cn1cc(-c2cc3c(Nc4ccc(CC(=O)Nc5cc(C(C)(C)C)on5)cc4)ncnc3[nH]2)cn1`: the GI50 is 0.325 µM and 0.242 µM; the TGI is 1.08 µM and 0.737 µM.

As to `CN1CCN(c2ccc(Nc3nc(NCCCNS(=O)(=O)c4cccc5ccccc45)c4sccc4n3)cc2)CC1`, the GI50 was 2.1 µM and the TGI was determined as 6.23 µM.

Consider `CC1(C)CCC(S(=O)(=O)c2ccc3c(c2)/C(=N\O)c2cc(S(=O)(=O)N4CCC(O)(c5cccc(C(F)(F)F)c5)CC4)ccc2-3)CC1`, for which the GI50 was 0.0176 µM and the TGI is 0.0356 µM.

As for `O=C(NNc1nc2cc(F)ccc2n2c(CN3CCOCC3)ccc12)c1ccccc1`, the GI50 is 0.193 µM and the TGI came out at 0.894 µM.
